Data published in BindingDB's records for doi:10.1021/jm950655o (University of Arizona, 1996).

Molecular target: Delta-type opioid receptor (Cavia porcellus)
Test: Inhibition of binding [3H]cyclo[D-Pen2,p-Cl,-Phe4,D-Pen5] enkephalin to Opioid receptor delta 1 of guinea pig brain membrane (GPB) homogenates.

IC50: > 10 µM
SMILES: CC[C@H](C)[C@H](NC(=O)[C@H](CCCN=C(N)N)NC(=O)[C@H](CCCN=C(N)N)NC(=O)[C@H](CC(C)C)NC(=O)[C@H](Cc1ccccc1)NC(=O)[C@H](Cc1ccc(O)cc1)NC(=O)CNC(=O)[C@@H](N)Cc1ccc(O)cc1)C(=O)N[C@@H](CCCN=C(N)N)C(=O)N1CCC[C@H]1C(=O)N[C@@H](CCCCN)C(N)=O
